These results are taken from patent publication US8278069B2, “Identification of a β-1,3-N-acetylgalactosaminyltransferase (CGTE) from Campylobacter jejuni LIO87” (National Research Council of Canada, priority 2005, dated 2012).

In one assay the test system is CgtE (CJL-107). The assay can be described thus: Substrate specificity of CgtE (CJL-107), acceptor and donor substrates. Particulars: for Activity: enzyme CgtE (CJL-107). The class given is biochemical, Campylobacter jejuni LIO87. An excerpt:
A nucleic acid encoding a CgtE polypeptide, or a subsequence thereof, can be characterized by assaying for the expressed product. Assays based on the detection of the physical, chemical, or immunological properties of the expressed protein can be used. For example, one can identify a cloned CgtE nucleic acid B, by the ability of a protein encoded by the nucleic acid to catalyze the transfer of a galactose moiety from a donor substrate to an acceptor substrate. In one method, capillary electrophoresis is employed to detect the reaction products. This highly sensitive assay involves using either saccharide or disaccharide aminophenyl derivatives which are labeled with fluorescein as described in Wakarchuk et al. (1996) J. Biol. Chem. 271 (45): 28271-276. To assay for CgtE activity, Galα-Lac-FCHASE or GalNAc-α-FCHASE is used as a substrate. The reaction products of other glycosyltransferases can be detected using capillary electrophoresis, e.g., to assay for a Neisseria lgtC enzyme, either FCHASE-AP-Lac or FCHASE-AP-Gal can be used, whereas for the Neisseria lgtB enzyme an appropriate reagent is FCHASE-AP-GlcNAc (Wakarchuk, supra). To assay for α2,8-sialyltransferase, GM3-FCHASE is used as a substrate. See, e.g., U.S. Pat. No. 6,503,744, which is herein incorporated by reference. Other methods for detection of oligosaccharide reaction products include thin layer chromatography and GC/MS and are disclosed in U.S. Pat. No. 6,503,744, which is herein incorporated by reference.
CgtE used both Galα-Lac-FCHASE and GalNAc-α-FCHASE as acceptor substrate. CgtE enzymatic activity was higher when Galα-Lac-FCHASE was used as the acceptor substrate.

In another assay the test system is CgtE. The assay can be described thus: Characterization of CgtE enzymatic activity (pH, divalent cations, truncation). The class given is biochemical, Campylobacter jejuni LIO87. Conditions: divalent cations necessary for activity. An excerpt:
CgtE enzymatic activity was characterized further. CgtE activity was optimal from pH 7 to 7.5.

CgtE (CJL-107), sequence (as listed by the source): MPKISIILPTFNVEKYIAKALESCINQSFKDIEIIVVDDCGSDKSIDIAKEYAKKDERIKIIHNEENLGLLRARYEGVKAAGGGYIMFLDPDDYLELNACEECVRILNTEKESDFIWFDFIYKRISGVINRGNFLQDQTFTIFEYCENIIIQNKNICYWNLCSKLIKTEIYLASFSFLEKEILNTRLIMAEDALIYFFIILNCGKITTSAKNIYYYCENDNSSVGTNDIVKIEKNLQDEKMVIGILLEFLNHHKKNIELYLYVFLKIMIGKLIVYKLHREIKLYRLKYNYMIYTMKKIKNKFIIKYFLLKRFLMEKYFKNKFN

Consider GalNAc-α-FCHASE, for which the Activity turned out to be 0.6 mU/mL in the assay with CgtE (CJL-107) (donor UDP-Gal) and 0.3 mU/mL with CgtE (CJL-107) (donor UDP-GalNAc).

`[Cl][Mn][Cl]` [MnCl2]: the “CgtE activity with divalent cation relative to MgCl2” value with CgtE is given as “two-fold higher”.

As for Galα-Lac-FCHASE, in the assay on CgtE (CJL-107) (Galα-Lac-FCHASE versus GalNAc-α-FCHASE as acceptor), the “CgtE enzymatic activity, comparison of acceptor substrates” value is on record as “higher”. For the same molecule, the Activity with CgtE (CJL-107) (donor UDP-Gal) worked out at 7.0 mU/mL; in the assay with CgtE (CJL-107) (donor UDP-GalNAc), 63.5 mU/mL.
